As usually defined, the pIC50 is the IC50 on a negative log10 scale, so that one unit is a factor of ten. Lower therefore signals a high IC50.

pIC50: −log10 of the molar value.

The text below walks through data of US12344603B2 (Genentech, Inc., priority 2020, dated 2025).

Chain of IRE1α (O75460 547-977 D688N): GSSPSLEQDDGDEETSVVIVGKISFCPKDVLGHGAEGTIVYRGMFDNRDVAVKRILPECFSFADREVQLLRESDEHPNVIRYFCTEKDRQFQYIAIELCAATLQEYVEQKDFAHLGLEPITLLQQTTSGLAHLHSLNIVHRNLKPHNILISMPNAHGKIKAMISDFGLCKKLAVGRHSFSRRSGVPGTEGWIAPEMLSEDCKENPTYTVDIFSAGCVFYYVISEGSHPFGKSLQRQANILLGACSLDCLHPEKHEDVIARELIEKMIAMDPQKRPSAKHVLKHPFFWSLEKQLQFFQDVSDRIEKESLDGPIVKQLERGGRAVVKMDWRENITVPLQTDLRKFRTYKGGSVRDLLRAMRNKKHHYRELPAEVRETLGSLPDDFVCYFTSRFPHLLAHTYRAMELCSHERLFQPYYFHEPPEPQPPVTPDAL

The target of this assay is IRE1α (Homo sapiens (Human), UniProt O75460, D688N). Put plainly: IRE1α TR-FRET competition binding assay (IRE1α HTRF). The following applies: TR-FRET competition binding to kinase domain of IRE1α. The procedure, abridged:
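Competition of compounds against an Alexa fluor 647 ATP-site probe (2 nM final) for the His-tagged kinase domain (0.25 nM final), detected via 2 nM Eu anti-His antibody by TR-FRET, 665 and 615 nm emission. Protein–antibody premix 1 h, 4° C; reaction 1 h, room temperature, pH 7.5 HEPES buffer.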
Background: Time-resolved FRET reads energy transfer from a long-lived donor to a nearby acceptor.
`CC(C)n1c(=O)c(-c2ccc(NS(=O)(=O)CCC(F)(F)F)c(F)c2)cc2cnc(N[C@H]3CC[C@H](N(C)C4COC4)CC3)nc21` [Compound 206, 3,3,3-Trifluoro-N-(2-fluoro-4-(8-isopropyl-2-(((1,4-trans)-4-(methyl(oxetan-3-yl)amino)cyclohexyl)amino)-7-oxo-7,8-dihydropyrido[2,3-d]pyrimidin-6-yl)phenyl)propane-1-sulfonamide] gave a negative logarithm of the IC50 (pIC50) of 9.77.

The compound `CC(C)n1c(=O)c(-c2ccc(NS(=O)(=O)CCC(F)(F)F)c(F)c2)cc2cnc(N[C@H]3CC[C@H](N(C)C4CC4)CC3)nc21` [Compound 207, N-(4-(2-(((1,4-trans)-4-(Cyclopropyl(methyl)amino)cyclohexyl)amino)-8-isopropyl-7-oxo-7,8-dihydropyrido[2,3-d]pyrimidin-6-yl)-2-fluorophenyl)-3,3,3-trifluoropropane-1-sulfonamide] gave a negative-log IC50 (pIC50) of 9.68.

In the case of `O=c1c(-c2ccc(NS(=O)(=O)Cc3ccccc3F)c(F)c2)cc2cnc(N[C@@H]3CNC[C@@H](F)C3)nc2n1CCO` [Compound 208, N-[2-Fluoro-4-[2-[[(3S,5S)-5-fluoro-3-piperidyl]amino]-8-(2-hydroxyethyl)-7-oxo-pyrido[2,3-d]pyrimidin-6-yl]phenyl]-1-(2-fluorophenyl)methanesulfonamide], the pIC50 was 8.92.

For the compound `CC(C)n1c(=O)c(-c2ccc(NS(=O)(=O)CCC(F)(F)F)c(F)c2)cc2cnc(N[C@H]3CC[C@H](N(C)CC4CCO4)CC3)nc21` (stereo partly drawn) [Compound 209, 3,3,3-Trifluoro-N-(2-fluoro-4-(8-isopropyl-2-(((1,4-trans)-4-(methyl(oxetan-2-ylmethyl)amino)cyclohexyl)amino)-7-oxo-7,8-dihydropyrido[2,3-d]pyrimidin-6-yl)phenyl)propane-1-sulfonamide], the pIC50 is 9.72.

As to `COCCN(CCOC)[C@H]1CC[C@H](Nc2ncc3cc(-c4ccc(NS(=O)(=O)CCC(F)(F)F)c(F)c4)c(=O)n(C(C)C)c3n2)CC1` [Compound 210, N-(4-(2-(((1,4-trans)-4-(Bis(2-methoxyethyl)amino)cyclohexyl)amino)-8-isopropyl-7-oxo-7,8-dihydropyrido[2,3-d]pyrimidin-6-yl)-2-fluorophenyl)-3,3,3-trifluoropropane-1-sulfonamide], the pIC50 is 9.60.

The compound `CC(C)n1c(=O)c(-c2ccc(NS(=O)(=O)CCC(F)(F)F)c(F)c2)cc2cnc(N[C@H]3CC[C@H](N4CC5(COC5)C4)CC3)nc21` [Compound 212, N-(4-(2-(((1,4-trans)-4-(2-Oxa-6-azaspiro[3.3]heptan-6-yl)cyclohexyl)amino)-8-isopropyl-7-oxo-7,8-dihydropyrido[2,3-d]pyrimidin-6-yl)-2-fluorophenyl)-3,3,3-trifluoropropane-1-sulfonamide] had a negative-log IC50 (pIC50) of 9.62.

`CC(C)n1c(=O)c(-c2ccc(NS(=O)(=O)CCC(F)(F)F)c(F)c2)cc2cnc(N[C@H]3CC[C@H](N4CCOCC4)CC3)nc21` [Compound 213, 3,3,3-Trifluoro-N-(2-fluoro-4-(8-isopropyl-2-(((1,4-trans)-4-morpholinocyclohexyl)amino)-7-oxo-7,8-dihydropyrido[2,3-d]pyrimidin-6-yl)phenyl)propane-1-sulfonamide]: the pIC50 was 9.85.

Take `CC(C)n1c(=O)c(-c2ccc(NS(=O)(=O)CCC(F)(F)F)c(F)c2)cc2cnc(NC3CCC(N(C)C)C(O)C3)nc21` (centres unmarked) [Compound 226, N-(4-(2-((4-(dimethylamino)-3-hydroxycyclohexyl)amino)-8-isopropyl-7-oxo-7,8-dihydropyrido[2,3-d]pyrimidin-6-yl)-2-fluorophenyl)-3,3,3-trifluoropropane-1-sulfonamide]: the negative logarithm of the IC50 (pIC50) is 9.52.

Consider `CC(C)n1c(=O)c(-c2ccc(NS(=O)(=O)CCC(F)(F)F)c(F)c2)cc2cnc(N[C@H]3CC[C@H](N(C)C)[C@@H](O)C3)nc21` [Compound 228, N-(4-(2-(((1S,3S,4S)-4-(dimethylamino)-3-hydroxycyclohexyl)amino)-8-isopropyl-7-oxo-7,8-dihydropyrido[2,3-d]pyrimidin-6-yl)-2-fluorophenyl)-3,3,3-trifluoropropane-1-sulfonamide], for which the pIC50 was 9.70.

The compound `CC(C)n1c(=O)c(-c2ccc(NS(=O)(=O)CCC(F)(F)F)nc2)cc2cnc(N[C@H]3CC[C@H](N(C)C)CC3)nc21` [Example 215, N-(5-(2-(((1r,4r)-4-(dimethylamino)cyclo-hexyl)amino)-8-isopropyl-7-oxo-7,8-dihydropyrido[2,3-d]-pyrimidin-6-yl)pyridin-2-yl)-3,3,3-trifluoro-propane-1-sulfonamide] had a pIC50 of 9.52.

`CC(C)n1c(=O)c(-c2ccc(NS(=O)(=O)CCC(F)(F)F)nc2)cc2cnc(N[C@@H]3CNC[C@@H](F)C3)nc21` [Example 216, 3,3,3-trifluoro-N-(5-(2-(((3S,5S)-5-fluoro-piperidin-3-yl)amino)-8-isopropyl-7-oxo-7,8-dihydropyrido[2,3-d]-pyrimidin-6-yl)pyridin-2-yl)propane-1-sulfon-amide] gave a negative logarithm of the IC50 (pIC50) of 8.77.

As for `CC(C)n1c(=O)c(-c2ccc(NS(=O)(=O)CCC(F)(F)F)cn2)cc2cnc(N[C@H]3CC[C@H](N(C)C)CC3)nc21` [Example 218, N-(6-(2-(((1r,4r)-4-(dimethylamino)cyclo-hexyl)amino)-8-isopropyl-7-oxo-7,8-dihydropyrido[2,3-d]-pyrimidin-6-yl)pyridin-3-yl)-3,3,3-trifluoro-propane-1-sulfonamide], the pIC50 is 9.70.

As for `CC(C)n1c(=O)c(-c2ccc(NS(=O)(=O)CCC(F)(F)F)c(F)c2)cc2cnc(NC3CCC4(CC3)CNC4)nc21` [Example 220, N-(4-(2-((2-azaspiro[3.5]nonan-7-yl)amino)-8-isopropyl-7-oxo-7,8-dihydropyrido[2,3-d]pyrimidin-6-yl)-2-fluorophenyl)-3,3,3-trifluoropropane-1-sulfonamide], the negative logarithm of the IC50 (pIC50) is 8.30.

`CC(C)n1c(=O)c(-c2ccc(NS(=O)(=O)CCC(F)(F)F)c(F)c2)cc2cnc(NC3CCC4(CC3)CN(C)C4)nc21` [Example 221, 3,3,3-Trifluoro-N-(2-fluoro-4-(8-isopropyl-2-((2-methyl-2-azaspiro[3.5]nonan-7-yl)amino)-7-oxo-7,8-dihydropyrido[2,3-d]pyrimidin-6-yl)phenyl)propane-1-sulfonamide] showed a negative logarithm of the IC50 (pIC50) of 9.70.

For `CC(C)n1c(=O)c(-c2cnc(NS(=O)(=O)CCC(F)(F)F)c(F)c2)cc2cnc(N[C@H]3CC[C@H](N(C)C)CC3)nc21` [Example 222, N-(5-(2-(((1r,4r)-4-(dimethylamino)cyclo-hexyl)amino)-8-isopropyl-7-oxo-7,8-dihydropyrido[2,3-d]-pyrimidin-6-yl)-3-fluoropyridin-2-yl)-3,3,3-trifluoropropane-1-sulfonamide], the negative-log IC50 (pIC50) is 9.52.

Consider `CC(C)n1c(=O)c(-c2ccc(NS(=O)(=O)CCC(F)(F)F)cn2)cc2cnc(N[C@H]3CC[C@H](N(C)C)[C@H](F)C3)nc21` [Example 223, N-(6-(2-(((1S,3R,4S)-4-(Dimethylamino)-3-fluorocyclohexyl)amino)-8-isopropyl-7-oxo-7,8-dihydropyrido[2,3-d]pyrimidin-6-yl)pyridin-3-yl)-3,3,3-trifluoropropane-1-sulfonamide], for which the pIC50 is 9.30.

On to `CC(C)n1c(=O)c(-c2ccc(NS(=O)(=O)CCC(F)(F)F)nc2)cc2cnc(N[C@H]3CC[C@H](N(C)C)[C@H](F)C3)nc21` [Example 224], for which the pIC50 is 9.70.

As to `CC(C)n1c(=O)c(-c2ccc(NS(=O)(=O)CCC(F)(F)F)c(F)c2)cc2cnc(NC3CCC(O)C(N(C)C)C3)nc21` (centres unmarked) [Example 225, N-(4-(2-((3-(Dimethylamino)-4-hydroxycyclohexyl)amino)-8-isopropyl-7-oxo-7,8-dihydropyrido[2,3-d]pyrimidin-6-yl)-2-fluorophenyl)-3,3,3-trifluoropropane-1-sulfonamide], the negative-log IC50 (pIC50) is 8.27.

The compound `CC(C)n1c(=O)c(-c2ccc(NS(=O)(=O)CCC(F)(F)F)c(F)c2)cc2cnc(N[C@@H]3CC[C@@H](N(C)C)[C@H](O)C3)nc21` [Example 227, N-(4-(2-(((1R,3R,4R)-4-(Dimethylamino)-3-hydroxycyclohexyl)amino)-8-isopropyl-7-oxo-7,8-dihydropyrido[2,3-d]pyrimidin-6-yl)-2-fluorophenyl)-3,3,3-trifluoropropane-1-sulfonamide] showed a pIC50 of 9.52.

For the compound `CC(C)n1c(=O)c(-c2ccc(NS(=O)(=O)CCC(C)(F)F)c(F)c2)cc2cnc(N[C@H]3CC[C@H](N(C)C)CC3)nc21` [Example 229, N-(4-(2-(((1r,4r)-4-(Dimethylamino)cyclohexyl)amino)-8-isopropyl-7-oxo-7,8-dihydropyrido[2,3-d]pyrimidin-6-yl)-2-fluorophenyl)-3,3-difluorobutane-1-sulfonamide], the pIC50 was 9.52.

`CC(C)n1c(=O)c(-c2ccc(NS(=O)(=O)CCC3(C)CC3)c(F)c2)cc2cnc(N[C@H]3CC[C@H](N(C)C)CC3)nc21` [Example 230, N-(4-(2-(((1r,4r)-4-(dimethylamino)cyclo-hexyl)amino)-8-isopropyl-7-oxo-7,8-dihydropyrido[2,3-d]-pyrimidin-6-yl)-2-fluorophenyl)-2-(1-methylcyclopropyl)-ethane-1-sulfonamide] showed a pIC50 of 9.70.

Take `CC(C)n1c(=O)c(-c2ccc(NS(=O)(=O)CCC3CCC3)c(F)c2)cc2cnc(N[C@H]3CC[C@H](N(C)C)CC3)nc21` [Example 231, 2-cyclobutyl-N-(4-(2-(((1r,4r)-4-(dimethyl-amino)cyclohexyl)-amino)-8-isopropyl-7-oxo-7,8-dihydropyrido-[2,3-d]pyrimidin-6-yl)-2-fluorophenyl)ethane-1-sulfonamide]: the negative-log IC50 (pIC50) is 10.00.

In the case of `CC(C)n1c(=O)c(-c2ccc(NS(=O)(=O)CCCC3CC3)c(F)c2)cc2cnc(N[C@H]3CC[C@H](N(C)C)CC3)nc21` [Example 232, 3-cyclopropyl-N-(4-(2-(((1r,4r)-4-(dimethyl-amino)cyclohexyl)-amino)-8-isopropyl-7-oxo-7,8-dihydropyrido-[2,3-d]pyrimidin-6-yl)-2-fluorophenyl)propane-1-sulfonamide], the pIC50 is 9.70.
